The results in this text go back to patent US5605901A, “Indane derivatives, processes for preparing the same and synthetic intermediate of the same” (Tanabe Seiyaku Co., Ltd., priority 1993, dated 1997).

Assay [1] in a line: Action of protecting mouse from death induced by endotoxin. The assay is classed as in vivo, mouse (ddy strain). To be noted: 100 mg/kg orally, 30 min before endotoxin 100 mg/10 ml/kg i.p.; determined when control survival became 20 (about 20 hours). The protocol:
(Action of Protecting Mouse from Death Induced by Endotoxin)
To ddy strain male mice (one group: 10 mice) which had fasted for about 24 hours, each test sample dissolved or suspended in a 0.25% sodium carboxymethyl cellulose (CMC) aqueous solution was orally administered (100 mg/kg). After 30 minutes, 100 mg/10 ml/kg of endotoxin (lipopoly-saccharide) derived from Escherichia coli dissolved in physiological saline was administered intraperitoneally. When the survival rate of the control group to which the CMC aqueous solution had been orally administered became 20 (about 20 hours after administration of endotoxin), the survival rates of the groups to which the test samples had been administered were determined.

A short description of assay [2]: Action on rat glomerular nephritis (nephrotoxic serum-induced; protein excretion in urine). The assay is classed as in vivo, rat (WKY strain). To be noted: po, 30 mg/kg/10 ml orally twice a day for 8 days, NTS-induced nephritis, 24 hours urine collected after 7 days, read-out: Inhibition rate of excretion of protein in urine. As for the experimental part:
(Action on Rat Glomerular Nephritis)
Rabbits were immunized several times with a renal glomerular basement membrane fraction obtained from WKY strain rats and an adjuvant. Thereafter, blood was collected to obtain a nephrotoxic serum (NTS). This NTS was diluted by 50 times with physiological saline, and the diluted NTS was once administered intravenously to male WKY rats of 8 weeks old in a dose of 2.5 ml per 1 kg of body weight to induce nephritis. In normal group of rats, the same volume of physiological saline was intravenously administered.
In the experiment, one group consisted of 6 rats, and each compound to be tested was suspended in water with small amount of Tween 80 (trade name, produced by Nacalai Tesque Co.), and was orally administered to the test group of rats at a dose of 30 mg/kg/10 ml twice a day for 8 days. In normal group and control group of rats, the same volume of water was orally administered instead of the test compound. After 7 days, the rats were placed in metabolic cages and urine was collected for 24 hours. Concentrations of protein in urine were measured by the sulfosalicylic acid method to determine amounts of protein excreted in the urine (mg/day). The inhibition rate of excretion of protein were calculated by the following equation. [formula]

Molecule `CCCC(=O)NC1Cc2ccc(C3=NNC(=O)CC3)cc2C1` (stereo not drawn) [Example 11, 2-butyrylamino-5-[4,5-dihydropyridazin-3(2H)-on-6-yl]indane] yielded a Survival rate in assay [1] of 100%.
For the molecule `CCC(=O)NC1Cc2ccc(C3=NNC(=O)CC3)cc2C1` (stereo not drawn) [Example 12], the Survival rate in assay [1] came out at 90%.
The same measure, in the same setting: the same measure for `O=C1CCC(c2ccc3c(c2)CC(NC(=O)c2cccnc2)C3)=NN1` (stereo not drawn) [Example 18]: 80%.
On the same count and under the same terms, under `O=C1CCC(c2ccc3c(c2)CC(NC(=O)c2cnccn2)C3)=NN1` (stereo not drawn) [Example 22] stands 70%; under `O=C1CCC(c2ccc3c(c2)CC(NC(=O)c2ccccn2)C3)=NN1` (stereo not drawn) [Example 25], 80%; under `CCCN(C(=O)OCC(C)C)C1Cc2ccc(C3=NNC(=O)CC3)cc2C1` (stereo not drawn) [Example 35, 2-(N-propyl-N-isobutoxycarbonylamino)-5-[4,5-dihydropyridazin-3(2H)-on-6-yl]indane], 80%.
`CCCN(C(=O)OCc1ccccc1)C1Cc2ccc(C3=NNC(=O)CC3)cc2C1` (stereo not drawn) [Example 37]: the Survival rate in assay [1] stood at 60%.
Take `CCCC(=O)NC1Cc2ccc(-c3ccc(=O)[nH]n3)cc2C1` (stereo not drawn) [Example 40, 2-butyrylamino-5-[pyridazin-3(2H)-on-6-yl]indane]: the inhibition in vivo at 30 mg/kg in assay [2] came out at 72.4%.
On to `CCCOC(=O)NC1Cc2ccc(-c3ccc(=O)[nH]n3)cc2C1` (stereo not drawn) [Example 48], for which the inhibition in vivo at 30 mg/kg in assay [2] amounted to 60.3%.
On to `O=C(NCC1Cc2ccc(-c3ccc(=O)[nH]n3)cc2C1)c1cccnc1` (stereo not drawn) [Example 60], for which the inhibition in vivo at 30 mg/kg in assay [2] came to 59.5%.
In the case of `C=CC(=O)NCCCCC1Cc2ccc(-c3ccc(=O)[nH]n3)cc2C1` (stereo not drawn) [Example 63], the inhibition in vivo at 30 mg/kg in assay [2] is 61.6%.
Still for that read-out and setting: under `C=CC(=O)NCCC1Cc2ccc(-c3ccc(=O)[nH]n3)cc2C1` (stereo not drawn) [Example 105] stands 60.2%.
The same measure, in the same setting: the same measure for `C=CC(=O)NCCCC1Cc2ccc(-c3ccc(=O)[nH]n3)cc2C1` (stereo not drawn) [Example 106]: 81%; for `O=C(NCCC1Cc2ccc(-c3ccc(=O)[nH]n3)cc2C1)c1ccncc1` (stereo not drawn) [Example 109]: 67.4%; for `O=C(NCCC1Cc2ccc(-c3ccc(=O)[nH]n3)cc2C1)c1cccnc1` (stereo not drawn) [Example 110]: 91.8%.
On the same count and under the same terms, under `Cc1ncccc1C(=O)NCCC1Cc2ccc(-c3ccc(=O)[nH]n3)cc2C1` (stereo not drawn) [Example 127] stands 93%; under `Nc1ncccc1C(=O)NCCC1Cc2ccc(-c3ccc(=O)[nH]n3)cc2C1` (stereo not drawn) [Example 129], 98.9%; under `O=C1CCC(c2ccc3c(c2)CC(CCNC(=O)c2cccnc2)C3)=NN1` (stereo not drawn) [Example 148], 88.9%.
